Where two headings read alike, the source gives them in different places.
Key:
[1] = ropinirole, cited from earlier work
[2] = In vivo pharmacokinetic study of ropinirole / ROP-ODF; conditions: New Zealand Albino, rabbit, po, 1.5 mg/kg
Description: (§1) New Zealand Albino rabbits (3.0-4.5 kg) were used in this study. The rabbits were kept at a 12/12 hour light/dark cycle with unlimited food and water supply. […] The rabbits were lightly anesthetized by an intramuscular injection of ketamine and xylazine immediately before dosing. In order to compensate for reduced saliva secretion due to anesthesia, the mouths of the rabbits were wetted with a small amount of distilled water (about 1 mL) before sublingual or buccal administration of the orally dissolving films.
(§2) Blood samples were collected periodically at pre-determined time points for 6 hours.
(§3) The pharmacokinetic studies were conducted by three different routes (i.e. oral, sublingual, and buccal administration), and the data were analyzed non-compartmentally by using WinNonlin (Certara USA, Inc., Princeton, N.J., USA).

in vivo = conditions: New Zealand Albino, rabbit, po, 1.5 mg/kg
Description: as §1, §2, §3

[3] = cited from earlier work

In the case of `CCCN(CCC)CCc1cccc2c1CC(=O)N2` [ropinirole, Ropinirole], the Tmax ([1]; after oral administration) is listed as ~1.5 h, the “oral dose excreted unchanged” value ([1]; oral) is listed as 10% and the Tmax [2] is listed as 2.38 h. The AUC(0-inf) (in vivo) was 90.5 ng·h/mL, the AUC(0-t) (in vivo) was 65.5 ng·h/mL and the Cmax (in vivo) was 29.9 ± 16.2 ng/mL. For the same molecule, the half-life (in vivo) was 2.893 ± 0.0183 h and the “protein binding in the plasma” value [3] was 10-39%.

— patent publication US20180000725A1, “ORALLY-DISSOLVING FILMS FOR DRUG DELIVERY THROUGH THE ORAL CAVITY” (The Chinese University of Hong Kong, priority 2016, published 2018)
